Test: Assays for synthesizing FDS-LNTβNHCbz (48) from S-LNF-IIβNHCbz (37)
Format: biochemical
Conditions: 30° C., analyzed by HRMS at 24 hours and 72 hours
Method: Assays for synthesizing FDS-LNTβNHCbz (48) from S-LNF-IIβNHCbz (37). Assays were carried out at 30° C. in a total volume of 10 μL in Tris-HCl buffer (100 mM, pH 7.5) containing (10 mM), CMP-Neu5Ac (15 mM), MgCl2 (20 mM), MBP-Δ50hST6GALNAC V_ext20-Hiss ([…]), MBP-Δ50hST6GALNAC V_V99M-His6, or MBP-Δ50hST6GALNAC V_V99M_ext20-His6. The reactions were analyzed by HRMS at 24 hours and 72 hours. The formation of FDS-LNTβNHCbz (48) was observed (FIGS. 71A and 71B), and the conversion was around 40-50% after 72 h incubation using MBP-Δ50hST6GALNAC V_ext20-His6.

## MBP-Δ50hST6GALNAC V_V99M-His6: V99M mutant of recombinant human ST6GALNAC V with N-terminal MBP and C-terminal His6
  formation of FDS-LNTβNHCbz (48): formation of the target product was also observed

— patent US20250163091A1, “FUNCTIONALIZED HUMAN MILK OLIGOSACCHARIDES AND METHODS FOR PRODUCING THEM” (The Regents of the University of California, priority 2022, published 2025)
